The supplement of paper PMC9663587

Experiments:
AZD1775 = compound: C=CCn1c(=O)c2cnc(Nc3ccc(N4CCN(C)CC4)cc3)nc2n1-c1cccc(C(C)(C)O)n1 [AZD1775]
Cediranib/AZD2171 = compound: COc1cc2c(Oc3ccc4[nH]c(C)cc4c3F)ncnc2cc1OCCCN1CCCC1 [Cediranib/AZD2171]
Saracatinib/AZD0530 = compound: CN1CCN(CCOc2cc(OC3CCOCC3)c3c(Nc4c(Cl)ccc5c4OCO5)ncnc3c2)CC1 [Saracatinib/AZD0530]
[1] = compound: CCCCOc1c(C(=O)c2c(F)cc(C)cc2F)c[nH]c2nncc1-2
Alpelisib/BYL719 = compound: Cc1nc(NC(=O)N2CCC[C@H]2C(N)=O)sc1-c1ccnc(C(C)(C)C(F)(F)F)c1 [Alpelisib/BYL719]
[2] = compound: CC(=O)Nc1cccc(-n2c(=O)n(C3CC3)c(=O)c3c(Nc4ccc(I)cc4F)n(C)c(=O)c(C)c32)c1
[3] = compound: COc1ccc2c(c1)[C@]1(C[C@H]1c1ccc3c(/C=C/c4ccc(CN5C[C@@H](C)O[C@@H](C)C5)cc4)n[nH]c3c1)C(=O)N2
BVD523 = compound: CC(C)Nc1cc(-c2c[nH]c(C(=O)N[C@H](CO)c3cccc(Cl)c3)c2)c(Cl)cn1 [BVD523]
[4] = compound: CO[C@@H](C)Cn1c(=O)n(C)c2cnc3ccc(-c4cncc(C(C)(C)O)c4)cc3c21
THZ1 = compound: CN(C)C/C=C/C(=O)Nc1ccc(C(=O)Nc2cccc(Nc3ncc(Cl)c(-c4c[nH]c5ccccc45)n3)c2)cc1 [THZ1]
THZ531 = compound: CN(C)C/C=C/C(=O)Nc1ccc(C(=O)N2CCC[C@@H](Nc3ncc(Cl)c(-c4c[nH]c5ccccc45)n3)C2)cc1 [THZ531]
Rucaparib = compound: CNCc1ccc(-c2[nH]c3cc(F)cc4c3c2CCNC4=O)cc1 [Rucaparib]
LEE011/Ribociclib = compound: CN(C)C(=O)c1cc2cnc(Nc3ccc(N4CCNCC4)cn3)nc2n1C1CCCC1 [LEE011/Ribociclib]; experiment: increase in dead-cell fraction, 72 h; higher = more death;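 note: breast cancer cell lines in 384-well plates, stained with Hoechst plus LIVE/DEAD far red dye and imaged, cells above an LDR intensity threshold counted dead, Hoechst-negative corpses included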
BSJ-03-123 = compound: CC(=O)c1c(C)c2cnc(Nc3ccc(N4CCN(CCOCCOCCOCCNC(=O)COc5cccc6c5C(=O)N(C5CCC(=O)NC5=O)C6=O)CC4)cn3)nc2n(C2CCCC2)c1=O [BSJ-03-123]; experiment: as above
[5] = compound: CCc1cnn2c(NCc3ccc[n+]([O-])c3)cc(N3CCCC[C@H]3CCO)nc12; experiment: as above
[6] = compound: CC(=O)c1c(C)c2cnc(Nc3ccc(N4CCNCC4)cn3)nc2n(C2CCCC2)c1=O; experiment: as above
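Throughout, for GR50, 72 h: breast cancer and non-malignant breast epithelial cell lines, Deep Dye Drop or Dye Drop imaging, nine half-log doses, GR normalized to time-zero plates and DMSO-only controls.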

SKBR3
GR50, 72 h (AZD1775): 0.206 µM
GR50, 72 h (Cediranib/AZD2171): 6.2 µM
GR50, 72 h (Saracatinib/AZD0530): 4.92 µM
GR50, 72 h [1]: 0.0869 µM
GR50, 72 h (Alpelisib/BYL719): 0.485 µM
GR50, 72 h [2]: > 1 µM
GR50, 72 h [3]: 0.00188 µM
GR50, 72 h (BVD523): 6.46 µM
GR50, 72 h [4]: 0.00188 µM
GR50, 72 h (THZ1): 0.014 µM
GR50, 72 h (THZ531): 0.0273 µM
GR50, 72 h (Rucaparib): > 10 µM
increase in dead-cell fraction (LEE011/Ribociclib; 0.001 µM): -0.0002
increase in dead-cell fraction (LEE011/Ribociclib; 0.003162 µM): -0.0049
increase in dead-cell fraction (LEE011/Ribociclib; 0.01 µM): 0.0112
increase in dead-cell fraction (LEE011/Ribociclib; 0.03162 µM): 0.0071
increase in dead-cell fraction (LEE011/Ribociclib; 0.1 µM): 0.0105
increase in dead-cell fraction (LEE011/Ribociclib; 0.3162 µM): 0.0092
increase in dead-cell fraction (LEE011/Ribociclib; 1 µM): 0.0206
increase in dead-cell fraction (LEE011/Ribociclib; 3.162 µM): 0.0182
increase in dead-cell fraction (LEE011/Ribociclib; 10 µM): 0.0119
increase in dead-cell fraction (BSJ-03-123; 0.001 µM): -0.001
increase in dead-cell fraction (BSJ-03-123; 0.003162 µM): 0.0008
increase in dead-cell fraction (BSJ-03-123; 0.01 µM): 0.0041
increase in dead-cell fraction (BSJ-03-123; 0.03162 µM): -0.0049
increase in dead-cell fraction (BSJ-03-123; 0.1 µM): 0.0076
increase in dead-cell fraction (BSJ-03-123; 0.3162 µM): -0.0004
increase in dead-cell fraction (BSJ-03-123; 1 µM): 0.0088
increase in dead-cell fraction (BSJ-03-123; 3.162 µM): 0.0136
increase in dead-cell fraction (BSJ-03-123; 10 µM): 0.15
increase in dead-cell fraction ([5]; 0.0001 µM): 0.0102
increase in dead-cell fraction ([5]; 0.0003162 µM): 0.0115
increase in dead-cell fraction ([5]; 0.001 µM): 0.0049
increase in dead-cell fraction ([5]; 0.003162 µM): 0.011
increase in dead-cell fraction ([5]; 0.01 µM): 0.303
increase in dead-cell fraction ([5]; 0.03162 µM): 0.574
increase in dead-cell fraction ([5]; 0.1 µM): 0.595
increase in dead-cell fraction ([5]; 0.3162 µM): 0.612
increase in dead-cell fraction ([5]; 1 µM): 0.583
increase in dead-cell fraction ([6]; 0.0003162 µM): -0.0013
increase in dead-cell fraction ([6]; 0.001 µM): 0.0036
increase in dead-cell fraction ([6]; 0.003162 µM): 0.0075
